{"source": "paper PMC6312359", "about": "“Diisopropylphenyl-imidazole (DII): A new compound that exerts anthelmintic activity through novel molecular mechanisms” (PLoS Neglected Tropical Diseases, 2018)", "key": {"C. elegans [1]": {"test_system": "C. elegans", "experiment": "Recovery assays", "format": "in vivo, Caenorhabditis elegans", "conditions": "600 μM, 4 and 8 h of exposure, scored 24 h later", "description": "To evaluate the recovery capacity of worms treated with DII, ~100 L4 worms were transferred to NGM plates containing DII (600 μM). After 4 and 8 h of exposure, those animals that survived were transferred to regular NGM plates. Worm viability was scored 24 h later. Results are expressed as the percentage of alive animals 24 h after being transferred to regular NGM plates. The experiment was independently repeated three times."}, "C. elegans [2]": {"test_system": "C. elegans", "experiment": "Worm cut preparation paralysis", "format": "in vivo, Caenorhabditis elegans", "conditions": "10 min; DII 600 μM, levamisole 10 μM; listed as DII", "description": "Cutworm assays were performed as previously described with slight modifications. Briefly, synchronized young adult animals were mounted in a glass microscope slide containing Artificial Perienteric Fluid (APF) (67 mM NaCl, 67 mM NaCH3COOH, 3 mM KCl, 15.7 mM MgCl2, 3 mM CaCl2 and 5 mM Tris, pH 7.6). 10 animals were severed between the middle and tail, approximately two-thirds from the anterior end. Worms were subsequently transferred to a multi-well plate containing APF or drug-APF and paralysis was evaluated after 10 minutes. All experiments were performed at least three times."}, "[3]": {"test_system": "Escherichia coli ATCC 25922", "experiment": "Minimum inhibitory and bactericidal concentrations, microdilution", "format": "cell-based", "conditions": "24 h at 37°C", "description": "(§1) The strains used in this study were Escherichia coli ATCC 25922 and Staphylococcus aureus ATCC 25923, kindly provided by Dr. Ziegler (Bacillus Genetic Stock Center, The Ohio State University). Stocks were stored in Mueller Hinton Broth (MHB, Biokar Diagnostics, France) supplemented with glycerol 20% at -70°C. Before running each test, the strains were incubated for 48 h at 37°C in MHB. Finally, the bacterial strains were sub-cultured in MHB at 37°C for 24 h. The solutions of antimicrobial agents and imidazolium salts were prepared following the Clinical and Laboratory Standards Institute (CLSI) guidelines for determination of Minimum Inhibitory Concentrations by the microdilution method (CLSI 2009). […] Cultures were incubated as described above and adjusted to OD625nm ~ 0.08–0.13 by the direct colony suspension method in saline water and finally adjusted to 2–8 10^5 CFU/ml by diluting 1:150 in MHB before testing. A volume of 100 μl of each sample dilution in saline water was transferred to the microplate well. Finally, an equal volume of the inoculum was added. The MIC was the lowest concentration at which there was no visible growth when compared with controls after 24 h at 37°C. To assess the minimum bactericidal concentration (MBC), 20 μl aliquots were taken from the wells where no visible growth was observed, seeded on petri dishes and covered with MH agar (MHA) at 45°C. The compounds were considered bactericidal at the concentration at which no visible colony was observed on the plate after 24 h at 37°C. All conditions were run at least in duplicate. The results were obtained from at least 3 independent experiments."}, "[4]": {"test_system": "Staphylococcus aureus ATCC 25923", "experiment": "Minimum inhibitory and bactericidal concentrations, microdilution", "format": "cell-based", "conditions": "ATCC25923, 24 h at 37°C", "description": "as §1"}, "C. elegans [5]": {"test_system": "C. elegans", "experiment": "Toxicity at early developmental stages (eggs, hatching, developmental rate)", "format": "in vivo, Caenorhabditis elegans", "description": "Briefly, gravid worms were collected and exposed to an alkaline hypochlorite solution (0.5 M NaOH and 1% NaOCl) to destroy adult worm tissues (eggs are resistant to bleach due to their chitin eggshell). Eggs were subsequently isolated with a sterile 60% sucrose solution and seeded on 35 mm NGM plates containing DII (100, 300 and 600 μM) or DMSO as a control. Hatched animals were quantified after 48 h. The results were expressed as follows: Number of living animals x 100/ Total number of eggs seeded. This experiment was independently repeated three times.\nFor ovicidal assessment, isolated eggs were seeded in NGM plates containing DII (600 μM) and video-recorded for 12 h. An egg was considered as non-viable if no hatching was observed during the recorded time.\nThe number of animals at different developmental stages (L1-L3, L4, and adults) was counted at 24, 48 and 72 h. The results were expressed as the number of animals at a given stage x 100/ Total number of living worms at that time point. This experiment was independently repeated three times."}, "C. elegans [6]": {"test_system": "C. elegans", "experiment": "Acute paralysis assays", "format": "in vivo, Caenorhabditis elegans", "conditions": "10 min", "description": "Acute paralysis assays were carried out in microtiter plates containing the drug dissolved in M9 buffer. […] Each drug concentration was tested in two wells (containing 30 animals each) within a single experiment. […] The experiment was independently repeated at least three times."}, "C. elegans [7]": {"test_system": "C. elegans", "experiment": "Pharyngeal pumping", "format": "in vivo, Caenorhabditis elegans", "conditions": "wild-type and unc-29 young adults, two hours of exposure; listed as DII", "description": "Supplementary file pntd.0007021.s006.tif: S6 Fig DII effects on pharyngeal pumping. Wild-type and unc-29 young adult worms (24 h past L4) were transferred to bacteria-seeded NGM plates containing different DII concentrations. After two hours of DII exposure, the number of contractions in the terminal bulb of the pharynx (pumps per minute) was counted using a stereomicroscope at 50x magnification. […] Bars represent the mean ± SEM from n = 20 animals per condition. Statistical differences compared to the non-treated condition (0 μM DII) within the same strain (ns: no statistically significant p>0.05, ***p<0.001). (TIF) Click here for additional data file."}, "[8]": {"conditions": "eggs exposed to 600 μM, 24, 48 and 72 h"}}, "note": "Several values for one entry are separate records, joined by “and”; a condition that tells them apart may be missing. Equal values may be shown once. Entries after “also recorded” stand apart in the source; their conditions may differ.", "data": [{"smiles": "CC(C)c1cccc(C(C)C)c1-n1ccnc1", "note": "[Compound 11]", "values": [{"measurement": "recovery of survivors after transfer to regular NGM plates", "setting": "C. elegans [1]", "value": "reversible"}, {"measurement": "paralysis in cut specimens", "setting": "C. elegans [2]", "value": "unable to induce paralysis; also recorded: fail to produce significant paralysis"}, {"measurement": "MIC E. coli", "setting": "[3]; listed as DII (11)", "value": 256, "unit": "µg/mL"}, {"measurement": "MBC", "setting": "[3]; Escherichia coli, ATCC25922", "value": "> 256", "unit": "µg/mL"}, {"measurement": "MIC", "setting": "[3]; Escherichia coli, ATCC25922", "value": "256 µg/mL and 1110 µM"}, {"measurement": "MBC", "setting": "[4]; read-out: MBC S. aureus", "value": "> 256", "unit": "µg/mL"}, {"measurement": "MIC", "setting": "[4]; read-out: MIC S. aureus", "value": 256, "unit": "µg/mL"}, {"measurement": "eggs hatched", "setting": "C. elegans [5]; 600 μM, within 12 hours, video recording", "value": 100, "unit": "%"}, {"measurement": "developmental rate, unc-29 null mutants", "setting": "C. elegans [5]; [8]", "value": "delays the development"}, {"measurement": "developmental rate, wild-type", "setting": "C. elegans [5]; [8]", "value": "delays nematode development"}, {"measurement": "number of viable animals relative to eggs seeded", "setting": "C. elegans [5]; eggs exposed to 100, 300 and 600 μM, 48 h", "value": "significantly reduced"}, {"measurement": "survivors that were adults", "setting": "C. elegans [5]; eggs on DII-containing plates (600 μM), 72 h", "value": "less than 5%"}, {"measurement": "paralysis in CB407 unc-49(e407)III hypersensitive strain", "setting": "C. elegans [6]; 100 μM", "value": "no paralyzing effects"}, {"measurement": "immobilized animals", "setting": "C. elegans [6]; 800 μM (highest concentration tested)", "value": 25, "unit": "%"}, {"measurement": "change of the dose-effect curve of levamisole by DII", "setting": "C. elegans [6]; DII 100 and 200 μM, intact animals", "value": "no significant changes"}, {"measurement": "pharyngeal pumping rate", "setting": "C. elegans [7]", "value": "inhibits the pharyngeal pumping; also recorded: decreases pharyngeal pumping rate"}]}]}
